Test results from ChEMBL document CHEMBL6096738, “Optimization of Single Relaxin B-Chain Peptide Leads to the Identification of R2R01, a Potent, Long-Acting RXFP1 Agonist for Cardiovascular and Renal Diseases” (J Med Chem, 2025).
pEC50: −log10 of the molar value. Starred links: 1 amine or outer side, 2 acyl side, 3 side chain; linkers in the order of their positions; H or OH if unused. Non-standard residues stand in square brackets, D forms with d. Residues, ends and D or L forms follow the SMILES beside them. Groups on a side chain read outwards from the residue. *: point of attachment. X2 = CCCCCCCCCCCCCCCC(=O)N[C@@H](CCC(=O)N[C@@H](CCC(=O)N[C@@H](CCC(=O)NCCCOCCOCCOCCCNC(=O)CCC(=O)NCCCOCCOCCOCCCNC(=O)CCC(=O)NCCCOCCOCCOCCCN*)C(=O)O)C(=O)O)C(=O)O; X1 = CCCCCCCCCCCCCCCC(=O)N[C@@H](CCC(=O)N[C@@H](CCC(=O)N[C@@H](CCC(=O)NCCCOCCOCCOCCCNC(=O)CCC(=O)NCCCOCCOCCOCCCN*)C(=O)O)C(=O)O)C(=O)O; γGlu = O=C(O)[C@H](CCC(=O)[*:2])N[*:1]; Stearoyl = CCCCCCCCCCCCCCCCCC(=O)*; Suc = O=C(CCC(=O)[*:2])[*:1]; αMeK = C[C@](N)(CCCCN)C(=O)O; Nle = CCCC[C@H](N)C(=O)O; AEEA = NCCOCCOCC(=O)O; Aib = CC(C)(N)C(=O)O

Legend:
[1] = target: T1, Relaxin receptor 1 (Homo sapiens) (UniProt Q9HBX9); test: Agonist activity at human RXFP1 expressed in human OVCAR-5 cells assessed as intracellular cAMP accumulation by measuring maximal efficacy incubated for 30 mins by HTRF assay relative to control; format: functional, cell-based; conditions: filed as agonist
T1 sequence (whole entry): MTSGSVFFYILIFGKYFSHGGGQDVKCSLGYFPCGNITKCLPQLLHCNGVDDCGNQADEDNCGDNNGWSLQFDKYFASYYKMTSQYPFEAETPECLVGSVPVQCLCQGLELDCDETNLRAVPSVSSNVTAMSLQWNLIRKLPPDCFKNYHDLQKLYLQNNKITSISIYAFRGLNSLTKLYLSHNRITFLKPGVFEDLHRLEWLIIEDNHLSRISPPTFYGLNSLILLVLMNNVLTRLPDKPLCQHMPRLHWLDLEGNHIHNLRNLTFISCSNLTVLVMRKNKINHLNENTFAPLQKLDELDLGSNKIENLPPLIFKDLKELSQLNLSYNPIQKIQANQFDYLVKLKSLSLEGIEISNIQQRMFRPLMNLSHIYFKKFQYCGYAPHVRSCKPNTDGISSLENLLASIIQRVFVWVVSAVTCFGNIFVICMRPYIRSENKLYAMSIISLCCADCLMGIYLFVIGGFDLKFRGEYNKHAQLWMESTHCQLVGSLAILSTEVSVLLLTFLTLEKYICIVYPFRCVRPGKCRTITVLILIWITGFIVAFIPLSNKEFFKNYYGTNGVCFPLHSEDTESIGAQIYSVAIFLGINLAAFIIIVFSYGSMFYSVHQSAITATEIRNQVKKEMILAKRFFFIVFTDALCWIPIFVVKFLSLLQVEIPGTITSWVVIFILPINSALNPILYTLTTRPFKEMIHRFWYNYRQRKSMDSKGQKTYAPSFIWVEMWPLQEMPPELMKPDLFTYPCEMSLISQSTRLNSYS

Relaxin receptor 1 [2] = target: T2, Relaxin receptor 1 (Homo sapiens, UniProt Q9HBX9); test: Agonist activity at human RXFP1 expressed in 2%HSA treated human OVCAR-5 cells assessed as intracellular cAMP accumulation incubated for 30 mins with 2% HSA pretreated compound by HTRF assay; format: functional, cell-based
T2 sequence (Q9HBX9 whole entry): T1 sequence (whole entry)

[3] = Cmax in male Sprague-Dawley rat at 3 mg/kg, sc measured after 198 hrs by LC-HRMS analysis; format: ADME, organism-based; conditions: in vivo
[4] = Bioavailability in female Gottingen pig at 1 mg/kg, sc measured after 198 hrs by LC-HRMS analysis; format: ADME, organism-based, Sus scrofa; conditions: in vivo
[5] = Bioavailability in male Sprague-Dawley rat at 3 mg/kg, sc measured after 198 hrs by LC-HRMS analysis; format: ADME, organism-based; conditions: in vivo
[6] = Drug metabolism in female Gottingen pig assessed as fatty acid chain oxidation mediated M+16 metabolite formation by measuring metabolite to parent compound AUC ratio at 1 mg/kg, iv measured after 198 hrs by LC-HRMS analysis; format: ADME, organism-based, Sus scrofa; conditions: in vivo
[7] = Half-life in male Beagle dog at 1 mg/kg, iv measured after 198 hrs by LC-HRMS analysis; format: ADME, organism-based, Canis lupus familiaris; conditions: in vivo
Rattus norvegicus [8] = test: Chronotropic effect in pithed male Sprague-Dawley rat assessed as increase in heart rate at 0.3 mg/kg, iv measured after 60 mins relative to control; format: functional; conditions: 1 h
[9] = Induction of mast cell degranulation in human LAD2 cells assessed as beta-hexosaminidase release by measuring 4-methylumbelliferyl N-acetyl-beta-D-glucosaminide hydrolysis incubated for 30 mins by plate reader analysis; format: toxicity, cell-based; conditions: probe 4-methylumbelliferyl N-acetyl-beta-D-glucosaminide
[10] = Half-life in male Sprague-Dawley rat at 1 mg/kg, iv measured after 198 hrs by LC-HRMS analysis; format: ADME, organism-based; conditions: in vivo
[11] = AUC (0 to 24 hrs) in male Sprague-Dawley rat at 1 mg/kg, iv measured after 198 hrs by LC-HRMS analysis; format: ADME, organism-based; conditions: in vivo
[12] = target: T1, Relaxin receptor 1 (Homo sapiens); test: Agonist activity at human RXFP1 expressed in 2%HSA treated human OVCAR-5 cells assessed as intracellular cAMP accumulation by measuring maximal efficacy incubated for 30 mins with 2% HSA pretreated compound by HTRF assay relative to control; format: functional, cell-based; conditions: filed as agonist
Relaxin receptor 1 [13] = target: T2, Relaxin receptor 1; test: Agonist activity at human RXFP1 expressed in human OVCAR-5 cells assessed as intracellular cAMP accumulation incubated for 30 mins by HTRF assay; format: functional, cell-based
[14] = Half-life in female Gottingen pig at 1 mg/kg, iv measured after 198 hrs by LC-HRMS analysis; format: ADME, organism-based, Sus scrofa; conditions: in vivo
[15] = Induction of mast cell degranulation in human LAD2 cells assessed as beta-hexosaminidase release by measuring maximal efficacy of 4-methylumbelliferyl N-acetyl-beta-D-glucosaminide hydrolysis at 33 uM incubated for 30 mins by plate reader analysis relative to control; format: toxicity, cell-based; conditions: probe 4-methylumbelliferyl N-acetyl-beta-D-glucosaminide
[16] = Drug metabolism in male Beagle dog assessed as fatty acid chain oxidation mediated M+16 metabolite formation by measuring metabolite to parent compound AUC ratio at 1 mg/kg, iv measured after 198 hrs by LC-HRMS analysis; format: ADME, organism-based, Canis lupus familiaris; conditions: in vivo
[17] = Drug metabolism in male Sprague-Dawley rat assessed as fatty acid chain oxidation mediated M+16 metabolite formation by measuring metabolite to parent compound AUC ratio at 1 mg/kg, iv measured after 198 hrs by LC-HRMS analysis; format: ADME, organism-based; conditions: in vivo
Rattus norvegicus [18] = test: Chronotropic effect in telemetered male Sprague-Dawley rat assessed as increase in heart rate administered subcutaneously and measured after 48 hrs; format: functional, organism-based; conditions: dose 0.1-1 mg/kg, route sc
[19] = Induction of immune response in human CD4+ T cells assessed as increase in auto reactive T cells at 3 uM preincubated with monocyte-derived immature dendritic cells followed by T cell addition and further stimulated on day 7 and 14 with autologous dendritic cells and measured after 5 days post last stimulation by IFNgamma-Elispot analysis; format: toxicity, cell-based; conditions: 120 h
[20] = Drug metabolism in male Beagle dog assessed as fatty acid chain oxidation mediated M+16 metabolite formation by measuring metabolite to parent compound AUC ratio at 3 mg/kg, sc measured after 198 hrs by LC-HRMS analysis; format: ADME, organism-based, Canis lupus familiaris; conditions: in vivo
Rattus norvegicus [21] = test: Chronotropic effect in pithed male Sprague-Dawley rat assessed as increase in heart rate at 1 mg/kg, iv measured after 60 mins relative to control; format: functional
[22] = Drug metabolism in male Sprague-Dawley rat assessed as fatty acid chain oxidation mediated M+16 metabolite formation by measuring metabolite to parent compound AUC ratio at 3 mg/kg, sc measured after 198 hrs by LC-HRMS analysis; format: ADME, organism-based; conditions: in vivo
[23] = Drug metabolism in female Gottingen pig assessed as fatty acid chain oxidation mediated M+16 metabolite formation by measuring metabolite to parent compound AUC ratio at 1 mg/kg, sc measured after 198 hrs by LC-HRMS analysis; format: ADME, organism-based, Sus scrofa; conditions: in vivo

| SMILES | Emax [1] | pEC50 (Relaxin receptor 1 [2]) | Cmax [3] | bioavailability [4] | bioavailability [5] | Ratio AUC [6] | half-life [7] | Activity (Rattus norvegicus [8]) | EC50 at 30 min [9] | half-life [10] | AUC(0-t) at 198 h [11] | Emax [12] | pEC50 (Relaxin receptor 1 [13]) | half-life [14] | Emax at 0.5 h, 33 µM [15] | Ratio AUC [16] | Ratio AUC [17] | further results |
| --- | --- | --- | --- | --- | --- | --- | --- | --- | --- | --- | --- | --- | --- | --- | --- | --- | --- | --- |
| CCCCCCCCCCCCCCCC(=O)N[C@@H](CCC(=O)N[C@@H](CCC(=O)N[C@@H](CCC(=O)NCCCOCCOCCOCCCNC(=O)CCC(=O)NCCCOCCOCCOCCCNC(=O)CCC(=O)NCCCC[C@H](NC(=O)CNC(=O)[C@H](CCC(=O)O)NC(=O)C(C)(C)NC(=O)C(C)(C)NC(=O)[C@@H](NC(=O)[C@H](CCCCNC(C)=O)NC(=O)[C@H](C)NC(=O)[C@H](CCCNC(=N)N)NC(=O)[C@@H](NC(=O)[C@H](CCCCN)NC(=O)[C@H](CCC(=O)O)NC(=O)[C@H](CCCNC(=N)N)NC(=O)CNC(=O)[C@H](CCC(=O)O)NC(=O)[C@H](CC(C)C)NC(C)=O)C(C)C)[C@@H](C)CC)C(=O)N[C@@H](CO)C(=O)N[C@H](C(=O)N[C@@H](Cc1c[nH]c2ccccc12)C(=O)N[C@@H](CO)C(=O)NC(C)(C)C(=O)N[C@@H](CCCNC(=N)N)C(=O)N[C@@H](CCCCN)C(=O)N[C@@H](CCCCNC(C)=O)C(N)=O)[C@@H](C)O)C(=O)O)C(=O)O)C(=O)O (Ac-LEGREKVRAK(Ac)I[Aib][Aib]EGK([Suc-X1])STWS[Aib]RKK(Ac)-NH2) | 95% | 6.84 | 2000 nM | 87% | 69% | 0.32 | 9.2 h | 31.4% | 5500 nM | 8.7 h | 19.5 µM·h | 81% | 8.89 | 27.2 h | 58% | 0.33 | – | – |
| CCCCCCCCCCCCCCCC(=O)N[C@@H](CCC(=O)N[C@@H](CCC(=O)N[C@@H](CCC(=O)NCCCOCCOCCOCCCNC(=O)CCC(=O)NCCCOCCOCCOCCCNC(=O)CCC(=O)NCCCOCCOCCOCCCNC(=O)CCC(=O)NCCCC[C@H](NC(=O)CNC(=O)[C@H](CCC(=O)O)NC(=O)C(C)(C)NC(=O)C(C)(C)NC(=O)[C@@H](NC(=O)[C@H](CCCCNC(C)=O)NC(=O)[C@H](C)NC(=O)[C@H](CCCNC(=N)N)NC(=O)[C@@H](NC(=O)[C@H](CCCCN)NC(=O)[C@H](CCC(=O)O)NC(=O)[C@H](CCCNC(=N)N)NC(=O)CNC(=O)[C@H](CCC(=O)O)NC(=O)[C@H](CC(C)C)NC(C)=O)C(C)C)[C@@H](C)CC)C(=O)N[C@@H](CO)C(=O)N[C@H](C(=O)N[C@@H](Cc1ccccc1)C(=O)N[C@@H](CO)C(=O)N[C@@](C)(CCCCN)C(=O)N[C@@H](CCCNC(=N)N)C(=O)N[C@@H](C)C(=O)N[C@@H](CCCCNC(C)=O)C(N)=O)[C@@H](C)O)C(=O)O)C(=O)O)C(=O)O (Ac-LEGREKVRAK(Ac)I[Aib][Aib]EGK([Suc-X2])STFS[αMeK]RAK(Ac)-NH2) | 97% | 7.58 | – | 74% | – | 0.25 | 8.8 h | 40.3% | > 33000 nM | 7.8 h | – | 86% | – | 22.3 h | 48% | 0.11 | < 0.01 | Activity (Rattus norvegicus [18]): Dose-dependent-effect |
| CCCCCCCCCCCCCCCCCC(=O)N[C@@H](CCC(=O)N[C@@H](CCC(=O)N[C@@H](CCC(=O)NCCOCCOCC(=O)NCCOCCOCC(=O)NCCOCCOCC(=O)NCCCC[C@H](NC(=O)[C@H](CCCCNC(C)=O)NC(=O)[C@H](CCCCN)NC(=O)[C@H](CCCNC(=N)N)NC(=O)C(C)(C)NC(=O)[C@H](CO)NC(=O)[C@H](Cc1c[nH]c2ccccc12)NC(=O)[C@@H](NC(=O)[C@H](CO)NC(=O)[C@H](CCCC)NC(=O)CNC(=O)[C@H](CCC(=O)O)NC(=O)C(C)(C)NC(=O)C(C)(C)NC(=O)[C@@H](NC(=O)[C@H](CCCCNC(C)=O)NC(=O)[C@H](C)NC(=O)[C@H](CCCNC(=N)N)NC(=O)[C@@H](NC(=O)[C@H](CCCCN)NC(=O)[C@H](CCC(=O)O)NC(=O)[C@H](CCCNC(=N)N)NC(=O)CNC(=O)[C@H](CCC(=O)O)NC(=O)[C@H](CC(C)C)NC(C)=O)C(C)C)[C@@H](C)CC)[C@@H](C)O)C(N)=O)C(=O)O)C(=O)O)C(=O)O (Ac-LEGREKVRAK(Ac)I[Aib][Aib]EG[Nle]STWS[Aib]RKK(Ac)K([AEEA-AEEA-AEEA-γGlu-γGlu-γGlu-Stearoyl])-NH2) | 84% | 7.74 | 1500 nM | – | 74% | 4 | 3.4 h | – | 1260 nM | 3.9 h | 9.4 µM·h | 89% | 9.70 | 7 h | 59.6% | 19.4 | < 0.1 | Activity [19]: Non-toxic; Ratio AUC [20]: 6.6; Activity (Rattus norvegicus [21]): 29%; Ratio AUC [22]: 0.104; Ratio AUC [23]: 4 |
